The subject of experiment [1] is Mycobacterium tuberculosis. Put plainly: Antimycobacterial activity against Mycobacterium tuberculosis assessed as reduction in bacterial growth. Type of experiment: functional.
Experiment [2] has as its system Mycobacterium tuberculosis. As to the kind of experiment: Binding affinity to Mycobacterium tuberculosis isocitrate lyase assessed as inactivation constant.
A short description of experiment [3]: Binding affinity to Mycobacterium tuberculosis Malate synthase assessed as inhibition constant.
The nature of experiment [4]: Inhibition of N-terminal His-tagged Mycobacterium tuberculosis malate synthase expressed in Escherichia coli BL21 (DE3).
In experiment [5] the test system is Mycobacterium tuberculosis. Put plainly: Inhibition of Mycobacterium tuberculosis isocitrate lyase at 0.05 microg/ml relative to control. Conditions: dose 0.05 µg/ml.
Experiment [6] concerns Escherichia coli. As to the kind of experiment: Antibacterial activity against Escherichia coli assessed as reduction in bacterial growth. The class given is functional, organism-based.
Experiment [7] has as its system Mycobacterium tuberculosis. Put plainly: Antibacterial activity against Mycobacterium tuberculosis H37Rv (ATCC 27294) assessed as bacterial growth inhibition incubated for 7 days by microdilution alamarBlue assay. The class given is functional. As to conditions: 168 h, time 7 day. (In broth dilution the organism is exposed to a series of concentrations in liquid medium.)

Experiment [8] in a line: Inhibition of N-terminal His-tagged isocitrate lyase (unknown origin) expressed in Escherichia coli BL21 (DE3).
For experiment [9], the system named is Mycobacterium tuberculosis. As to the kind of experiment: Antimycobacterial activity against Mycobacterium tuberculosis H37Rv assessed as inhibition of bacterial growth incubated for 24 hrs by alamar blue assay. The class given is functional. Background: Resazurin is reduced to fluorescent resorufin, in cell work by metabolically active cells.
The nature of experiment [10]: Binding affinity to indigofera isocitrate lyase assessed as inhibition of constant. Also noted: species or system Vogesella indigofera.
Experiment [11] in a line: Inhibition of Mycobacterium tuberculosis isocitrate lyase.
The test system of experiment [12] is Mycobacterium tuberculosis. Put plainly: Inhibition of Mycobacterium tuberculosis malate synthase at 1 uM relative to control.
The subject of experiment [13] is Mycobacterium tuberculosis. As to the kind of experiment: Antimycobacterial activity against Mycobacterium tuberculosis H37Rv assessed as reduction in bacterial growth measured after 7 days by broth dilution method. The class given is functional. As to conditions: 168 h, time 7 day.

Converted amounts (≈) assume the structure as drawn. Some results are limits rather than exact numbers.

A word on the MIC: it is the lowest concentration found to suppress growth. Broadly, the Ki is a measure of affinity in units of concentration, obtained from inhibition or displacement. As usually defined, the IC50 is the concentration that gives 50% inhibition. A word on the inhibition: it is the drop in the measured response relative to a control, in per cent. Read a low inhibition as a response near the control.

For the compound `Nc1ccc(S(=O)(=O)Nc2nccs2)cc1` [SULFATHIAZOLE], the MIC in experiment [1] was at least 125 µM.

`O=C(O)[C@H]1O[C@H]1C(=O)O`: in experiment [2], the Kinact was 0.01 10^3/M.s.

On to `C=C(OP(=O)(O)O)C(=O)O` [PHOSPHOENOLPYRUVATE], for which the inhibitory constant (Ki) in experiment [3] amounted to 200 µM.

In the case of `O=C(O)/C(O)=C/C(=O)c1ccccc1`, the IC50 in experiment [4] was 2 µM.

The compound `COc1ccc2cc(CCC(=O)CC(Nc3ccc(C(=O)O)cc3)c3ccc(Cl)cc3)ccc2c1` (centres undefined) showed an inhibition in experiment [5] of 57.4%.

Consider `O=C(O)C(=O)CBr` [BROMOPYRUVATE], for which the IC50 in experiment [6] came to 3 µM.

With `COC(=O)/C=C/C(=O)c1ccc(OC)cc1`, the minimal inhibitory concentration (MIC) in experiment [7] came to 0.25 µg/mL (≈ 1.14 µM). Moreover, the half-maximal inhibitory concentration (IC50) in experiment [8] (read-out: IC50) came out at 30.9 µM.

`O=c1ccc2ccc(O)c(O)c2o1` [DAPHNETIN] gave an IC50 in experiment [8] of 4.34 µg/mL. Further, in experiment [9], the MIC amounted to 128 µg/mL (≈ 719 µM).

On to `C=C(CC(=O)O)C(=O)O` [ITACONATE], for which the Ki in experiment [10] was 120 µM.

Regarding `O=CC(=O)O` [GLYOXYLATE], the Ki in experiment [3] is 900 µM.

In the case of `Nc1ccc(C(=O)O)c(O)c1` [AMINOSALICYLIC ACID], in experiment [1], the MIC was at least 125 µM.

For the compound `O=C(O)CC[N+](=O)[O-]`, in experiment [10], the Ki stood at 120 µM.

For `CCCCCCCCCCCCC(=O)NNC(=O)c1c(O)c2ccccc2n(CC)c1=O`, in [11], the IC50 is 134.4 µg/mL (≈ 303 µM).

As for `O=C(O)[C@@H](C[N+](=O)[O-])[C@@H](O)C(=O)O`, in [2], the Kinact is 1.3 10^3/M.s.

Regarding `O=C(O)CC(O)C(=O)O` (centres undefined), in experiment [12], the inhibition worked out at 50%.

In the case of `COc1ccc2c(c[n+](C)c3c4cc5c(cc4ccc23)OCO5)c1OC` [CHELERYTHRINE], in experiment [13], the MIC worked out at 8 µg/mL.

Regarding `O=C(O)C(=O)O` [OXALIC ACID], in experiment [3], the Ki was determined as 400 µM.

These data come from ChEMBL document CHEMBL5500322, “The significance of persisters in tuberculosis drug discovery: Exploring the potential of targeting the glyoxylate shunt pathway” (Eur J Med Chem, 2024).
